Measured values as given in patent US20130172294A1, “Treatment with VB-201” (Vascular Biogenics Ltd., priority 2010, published 2013).

Key:
[1] = Repeated daily dose pharmacokinetics of VB-201 in plasma, 14 days (Example 2); type: in vivo, human; details: for T1/2 (rec. ph.): recovery phase after Day 14
Procedure: Determination of VB-201 concentrations in plasma was performed using an HPLC-MS/MS (high performance liquid chromatography with tandem mass spectrometric detection) assay. Calibration was for a range of from 5 to 500 ng/ml for low doses and from 50 to 5000 ng/ml for high doses. Pharmacokinetic parameters were estimated by using a non-compartmental method, except for the AUC (area under curve), which was determined using a (log-) trapezoidal rule as the area above the previous trough level. […] The subjects were all healthy volunteers. […] 10 subjects received a placebo. The VB-201 was formulated in gelatin capsules enterocoated with Opadry AMB and Acryleze White. The 20 mg dose was originally in the form of 20 mg capsules. […] Pharmacokinetic blood samples for VB-201 determination were collected on Day 0 and Day 14, prior to dosing and 2, 4, 6, 8, 10, 12, 16 and 24 hours after dosing. […] Pharmacokinetic samples were also collected on Day 12 and Day 13, before dosing. Concentration-time curves were constructed for a time period of 24 hours on each of days 1 and 14. In addition, urine samples from the subjects receiving 30 mg VB-201 were assayed for VB-201 by high performance liquid chromatography-tandem mass spectrometry. […] The limit of detection was 1 ng/ml.

[2] = Safety and tolerability, food and coating study (Example 3); type: in vivo, human
Description: Safety and tolerability of VB-201 was judged by evaluating the incidence of abnormal findings in the following measurements: vital signs: systolic and diastolic blood pressure, heart rate, respiratory rate, body temperature; physical examination; 12-lead electrocardiogram; laboratory tests of blood samples for: complete blood count, prothrombin time/partial thromboplastin time, LDL- and HDL-cholesterol, total cholesterol, triglycerides, glucose, blood urea nitrogen, sodium, potassium, creatinine, calcium, phosphorus, creatinine phosphokinase, lactate dehydrogenase, aspartate transaminase, alanine transaminase, γ-glutamyl transferase, alkaline phosphatase, protein, albumin, total bilirubin, total IgM and IgG antibodies, interleukin-12/23 p40, tumor necrosis factor-α, and interleukin-6, as well as routine urinalysis; and all adverse events, whether or not considered serious, and whether or not considered related to the investigational agent, according to the criteria for Good Clinical Practice. Treatment-emergent adverse events were defined as any adverse event that started on or after administration of the first dose of VB-201, and no more than 30 days after administration of the last dose, or are ongoing at the time of the first dose and worsened in severity or frequency during treatment. […]

CCCCCCCCCCCCCCCCOCC(COP(=O)([O-])OCC[N+](C)(C)C)OCCCCC(=O)O (stereo not shown) [VB-201, 1-hexadecyl-2-(4′-carboxybutyl)-glycerol-3-phosphocholine]
multi-day accumulation relative to a single dose, estimated from elimination data ([1]; continued once per day dosing): approximately 4 times | AUC(0-24) ([1]; daily 5 mg, Day 1): 1.731 µg·h/mL | AUC(0-infinity) ([1]; daily 5 mg, Day 1): 6.005 µg·h/mL | AUMC (0-24) ([1]; daily 5 mg, Day 1): 23670 hours^2*ng/ml | AUMC (0-infinity) ([1]; daily 5 mg, Day 1): 341432 hours^2*ng/ml | Cl/F (0-24) ([1]; daily 5 mg, Day 1): 3.92 L/h | Cmax ([1]; daily 5 mg, Day 1): 0.11734 µg/mL | Kc ([1]; daily 5 mg, Day 1): 0.0250 h⁻¹ | MTT ([1]; daily 5 mg, Day 1): 14.51 h | T1/2 ([1]; daily 5 mg, Day 1): 32.18 h | Tmax ([1]; daily 5 mg, Day 1): 10 h | AUC(0-24) ([1]; daily 5 mg, Day 14): 6.238 µg·h/mL | AUC(0-infinity) ([1]; daily 5 mg, Day 14): 15.913 µg·h/mL | AUMC (0-24) ([1]; daily 5 mg, Day 14): 71173 hours^2*ng/ml | AUMC (0-infinity) ([1]; daily 5 mg, Day 14): 821875 hours^2*ng/ml | Accum. (accumulation) ([1]; daily 5 mg, Day 14): 4.75 | Cl/F (0-24) ([1]; daily 5 mg, Day 14): 0.90 L/h | Cmax ([1]; daily 5 mg, Day 14): 0.34031 µg/mL | Kc ([1]; daily 5 mg, Day 14): 0.0278 h⁻¹ | MTT ([1]; daily 5 mg, Day 14): 11.41 h | T1/2 ([1]; daily 5 mg, Day 14): 30.95 h | Tmax ([1]; daily 5 mg, Day 14): 9.67 h | T1/2 (rec. ph.) ([1]; daily 5 mg): 44.17 h | AUC(0-24) ([1]; daily 10 mg, Day 1): 3.494 µg·h/mL | AUC(0-infinity) ([1]; daily 10 mg, Day 1): 9.912 µg·h/mL | AUMC (0-24) ([1]; daily 10 mg, Day 1): 45924 hours^2*ng/ml | AUMC (0-infinity) ([1]; daily 10 mg, Day 1): 440602 hours^2*ng/ml | Cl/F (0-24) ([1]; daily 10 mg, Day 1): 4.92 L/h | Cmax ([1]; daily 10 mg, Day 1): 0.22792 µg/mL | Kc ([1]; daily 10 mg, Day 1): 0.0285 h⁻¹ | MTT ([1]; daily 10 mg, Day 1): 14.44 h | T1/2 ([1]; daily 10 mg, Day 1): 27.09 h | Tmax ([1]; daily 10 mg, Day 1): 11.33 h | AUC(0-24) ([1]; daily 10 mg, Day 14): 12.617 µg·h/mL | AUC(0-infinity) ([1]; daily 10 mg, Day 14): 36.183 µg·h/mL | AUMC (0-24) ([1]; daily 10 mg, Day 14): 148375 hours^2*ng/ml | AUMC (0-infinity) ([1]; daily 10 mg, Day 14): 2596242 hours^2*ng/ml | Accum. (accumulation) ([1]; daily 10 mg, Day 14): 5.06 | Cl/F (0-24) ([1]; daily 10 mg, Day 14): 0.87 L/h | Cmax ([1]; daily 10 mg, Day 14): 0.6658 µg/mL | Kc ([1]; daily 10 mg, Day 14): 0.0267 h⁻¹ | MTT ([1]; daily 10 mg, Day 14): 11.72 h | T1/2 ([1]; daily 10 mg, Day 14): 34.27 h | Tmax ([1]; daily 10 mg, Day 14): 11 h | T1/2 (rec. ph.) ([1]; daily 10 mg): 35.77 h | AUC(0-24) ([1]; daily 20 mg, Day 1): 4.186 µg·h/mL | AUC(0-infinity) ([1]; daily 20 mg, Day 1): 12.721 µg·h/mL | AUMC (0-24) ([1]; daily 20 mg, Day 1): 58323 hours^2*ng/ml | AUMC (0-infinity) ([1]; daily 20 mg, Day 1): 752013 hours^2*ng/ml | Cl/F (0-24) ([1]; daily 20 mg, Day 1): 5.21 L/h | Cmax ([1]; daily 20 mg, Day 1): 0.29423 µg/mL | Kc ([1]; daily 20 mg, Day 1): 0.0307 h⁻¹ | MTT ([1]; daily 20 mg, Day 1): 14.04 h | T1/2 ([1]; daily 20 mg, Day 1): 30.91 h | Tmax ([1]; daily 20 mg, Day 1): 12.33 h | AUC(0-24) ([1]; daily 20 mg, Day 14): 20.553 µg·h/mL | AUC(0-infinity) ([1]; daily 20 mg, Day 14): 47.828 µg·h/mL | AUMC (0-24) ([1]; daily 20 mg, Day 14): 229287 hours^2*ng/ml | AUMC (0-infinity) ([1]; daily 20 mg, Day 14): 2070644 hours^2*ng/ml | Accum. (accumulation) ([1]; daily 20 mg, Day 14): 4.90 | Cl/F (0-24) ([1]; daily 20 mg, Day 14): 1.46 L/h | Cmax ([1]; daily 20 mg, Day 14): 1.27565 µg/mL | Kc ([1]; daily 20 mg, Day 14): 0.0338 h⁻¹ | MTT ([1]; daily 20 mg, Day 14): 11.16 h | T1/2 ([1]; daily 20 mg, Day 14): 25.09 h | Tmax ([1]; daily 20 mg, Day 14): 7.33 h | T1/2 (rec. ph.) ([1]; daily 20 mg): 30.89 h | AUC(0-24) ([1]; daily 30 mg, Day 1): 6.409 µg·h/mL | AUC(0-infinity) ([1]; daily 30 mg, Day 1): 67.386 µg·h/mL | AUMC (0-24) ([1]; daily 30 mg, Day 1): 92749 hours^2*ng/ml | AUMC (0-infinity) ([1]; daily 30 mg, Day 1): 11648110 hours^2*ng/ml | Cl/F (0-24) ([1]; daily 30 mg, Day 1): 8.55 L/h | Cmax ([1]; daily 30 mg, Day 1): 0.41658 µg/mL | Kc ([1]; daily 30 mg, Day 1): 0.0220 h⁻¹ | MTT ([1]; daily 30 mg, Day 1): 14.73 h | T1/2 ([1]; daily 30 mg, Day 1): 72.30 h | Tmax ([1]; daily 30 mg, Day 1): 19 h | AUC(0-24) ([1]; daily 30 mg, Day 14): 30.555 µg·h/mL | AUC(0-infinity) ([1]; daily 30 mg, Day 14): 64.12 µg·h/mL | AUMC (0-24) ([1]; daily 30 mg, Day 14): 358861 hours^2*ng/ml | AUMC (0-infinity) ([1]; daily 30 mg, Day 14): 2456341 hours^2*ng/ml | Accum. (accumulation) ([1]; daily 30 mg, Day 14): 7.07 | Cl/F (0-24) ([1]; daily 30 mg, Day 14): 1.09 L/h | Cmax ([1]; daily 30 mg, Day 14): 1.8214 µg/mL | Kc ([1]; daily 30 mg, Day 14): 0.0333 h⁻¹ | MTT ([1]; daily 30 mg, Day 14): 11.78 h | T1/2 ([1]; daily 30 mg, Day 14): 23.64 h | Tmax ([1]; daily 30 mg, Day 14): 10 h | T1/2 (rec. ph.) ([1]; daily 30 mg): 32.78 h | VB-201 in urine samples ([1]; daily 30 mg, HPLC-MS/MS, limit of detection 1 ng/ml): No traces of VB-201 could be detected | induction or inhibition of metabolism ([1]; daily 5-30 mg): does not show significant induction or inhibition of metabolism | average accumulation rate ([1]; daily 5-30 mg, Day 14): approximately 5 | safety and tolerability ([2]; enteric coated and non-coated capsules, 10 to 20 mg, fasting or fed): as safe and tolerable as placebo | serious or treatment-emergent adverse events ([2]; single dose 10-20 mg, coated and non-coated, fed and fasting): No serious or treatment-emergent adverse events occurred
